Experiment [1] has as its system Cryptococcus neoformans. Kind of experiment: Antifungal activity against Cryptococcus neoformans H99 assessed as fungal growth inhibition at <= […] uM measured after 48 hrs by resazurin assay. The class given is functional, organism-based. For orientation: Alamar Blue is a resazurin reagent that responds to reducing activity.
The test system of experiment [2] is Candida albicans. Kind of experiment: Antifungal activity against Candida albicans clinical isolate 2 assessed as fungal growth inhibition at <= […] uM measured after 48 hrs by resazurin assay. The class given is functional, organism-based.

Activity calls are given as the source filed them. How the calls were made is not given here.

As to `Cc1ccccc1-c1cc(Nc2cc(O)cc(O)c2C(=O)N2Cc3cccnc3C2)n(C)n1`, the outcome in experiment [1] and in experiment [2] was Active.
With `O=C(c1c(O)cc(O)cc1Nc1ccnn1Cc1ccco1)N1Cc2cn[nH]c2C1`, the result in experiment [1] and in experiment [2] was Active.
Consider `COc1ccc(Cn2nc(-c3ccccc3)cc2Nc2cc(O)cc(O)c2C(=O)N2Cc3ccc(NC4CCN(C)CC4)cc3C2)cc1`, for which the result in experiment [1] and in experiment [2] was Active.
In the case of `O=C(c1c(O)cc(O)cc1Nc1ccnn1Cc1ccccc1)N1Cc2cccnc2C1`, the outcome in experiment [1] and in experiment [2] was Active.
Consider `O=C(c1c(O)cc(O)cc1Nc1ccnn1-c1ccccc1)N1Cc2cn[nH]c2C1`, for which the outcome in experiment [1] and in experiment [2] was Active.
As for `Cc1ccccc1-c1cc(Nc2cc(O)cc(O)c2C(=O)N2Cc3cn[nH]c3C2)n(C)n1`, the result in experiment [1] and in experiment [2] was Active.
`COc1ccc(Cn2nc(C)cc2Nc2cc(O)cc(O)c2C(=O)N2Cc3cccc(F)c3C2)cc1`: the outcome in experiment [1] and in experiment [2] was Active.
As for `CC(C)(C)n1nc(-c2ccccc2)cc1Nc1cc(O)cc(O)c1C(=O)N1Cc2cn[nH]c2C1`, the result in experiment [1] and in experiment [2] was Active.
Consider `O=C(c1c(O)cc(O)cc1Nc1cc(-c2ccccc2)nn1C1CCCCC1)N1Cc2cccnc2C1`, for which the outcome in experiment [1] and in experiment [2] was Active.
Turning to `Cn1nc(-c2ccc(C(F)(F)F)cc2)cc1Nc1cc(O)cc(O)c1C(=O)N1Cc2cn[nH]c2C1`, the outcome in experiment [1] and in experiment [2] was Active.
On to `O=C(c1c(O)cc(O)cc1Nc1ccnn1C1CCCCC1)N1Cc2cccnc2C1`, for which the outcome in experiment [1] and in experiment [2] was Active.
Turning to `CC(C)Cn1nccc1Nc1cc(O)cc(O)c1C(=O)N1Cc2cn[nH]c2C1`, the outcome in experiment [1] and in experiment [2] was Active.
On to `O=C(c1c(O)cc(O)cc1Nc1ccnn1-c1ccccc1)N1Cc2cccnc2C1`, for which the outcome in experiment [1] and in experiment [2] was Active.
`O=C(c1c(O)cc(O)cc1Nc1ccnn1CC1CCCCC1)N1Cc2ccccc2C1`: the result in experiment [1] and in experiment [2] was Active.
For the compound `COc1ccc(Cn2nc(C)cc2Nc2cc(O)cc(O)c2C(=O)N2Cc3ccccc3C2)cc1`, the result in experiment [1] and in experiment [2] was Active.
Regarding `Cn1nc(-c2ccc(C(F)(F)F)cc2)cc1Nc1cc(O)cc(O)c1C(=O)N1Cc2ccccc2C1`, the outcome in experiment [1] and in experiment [2] was Active.
As for `CC(C)Cn1nccc1Nc1cc(O)cc(O)c1C(=O)N1Cc2ccccc2C1`, the result in experiment [1] and in experiment [2] was Active.
In the case of `O=C(c1c(O)cc(O)cc1Nc1ccnn1C1CCCCC1)N1Cc2cn[nH]c2C1`, the outcome in experiment [1] and in experiment [2] was Active.
Consider `Cn1nc(-c2ccc(C(F)(F)F)cc2)cc1Nc1cc(O)cc(O)c1C(=O)N1Cc2cccnc2C1`, for which the outcome in experiment [1] and in experiment [2] was Active.
Regarding `Cn1nc(-c2cccc(C(F)(F)F)c2)cc1Nc1cc(O)cc(O)c1C(=O)N1Cc2cccnc2C1`, the outcome in experiment [1] and in experiment [2] was Active.
Turning to `COc1ccc(Cn2nc(C(C)C)cc2Nc2cc(O)cc(O)c2C(=O)N2Cc3cn[nH]c3C2)cc1`, the result in experiment [1] and in experiment [2] was Active.
`CC(C)c1cc(Nc2cc(O)cc(O)c2C(=O)N2Cc3cn[nH]c3C2)n(C)n1`: the outcome in experiment [1] and in experiment [2] was Active.
Turning to `COc1ccc(-c2cc(Nc3cc(O)cc(O)c3C(=O)N3Cc4cn[nH]c4C3)n(C)n2)cc1`, the result in experiment [1] and in experiment [2] was Active.

The record behind these values is ChEMBL document CHEMBL4402526, “Design and Synthesis of Fungal-Selective Resorcylate Aminopyrazole Hsp90 Inhibitors” (J Med Chem, 2020).
